The text below walks through data of publication PMC9541495, “Understanding the interaction of 14‐3‐3 proteins with hDMX and hDM2: a structural and biophysical study” (The Febs Journal, 2022).

Where a SMILES comes first, the peptide text is derived from it. [ ]: non-standard residue; d: D form. The star is where a group is joined. 5FAM = O=C1OC2(c3ccc(O)cc3Oc3cc(O)ccc32)c2ccc(C(=O)*)cc21; pS = N[C@@H](COP(=O)(O)O)C(=O)O; Ahx = NCCCCCC(=O)O

Holding throughout (format): binding
One experiment addresses T1, 14‐3‐3 τ (Homo sapiens, UniProt P27348).
T1 construct: full‐length proteins were concentrated by centrifugation, rebuffered in HEPES buffer; made in house; host or cells: E. coli BL21(DE3)
T1 sequence (P27348 1-245): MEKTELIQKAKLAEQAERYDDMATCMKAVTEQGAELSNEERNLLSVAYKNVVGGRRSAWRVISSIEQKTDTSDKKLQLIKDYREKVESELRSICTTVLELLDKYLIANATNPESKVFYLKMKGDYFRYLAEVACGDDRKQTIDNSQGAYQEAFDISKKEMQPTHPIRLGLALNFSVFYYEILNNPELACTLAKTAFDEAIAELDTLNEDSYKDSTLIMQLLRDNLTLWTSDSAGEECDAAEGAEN
Briefly: Fluorescence anisotropy direct titration, 14‐3‐3τ. As to conditions: FA direct titration; FAM‐Ahx tracer peptide 50 nM; HEPES/NaCl/Tween 20/BSA pH 7.4; 1:1 fit; n = 3; read-out: K d, 14‐3‐3 τ. The source says:
(§1) 14‐3‐3 proteins were titrated against a constant concentration of the tracer resulting in an increase of anisotropy upon engaging 14‐3‐3 proteins (Fig. 2A–C for 14‐3‐3 binding hDMX sequences and Figs S4–S6, for 14‐3‐3 binding hDM2 sequences, non‐binding sequence, and unphosphorylated controls). A noteworthy feature of the data is that different maximum anisotropy levels were observed between hDMX or hDM2 peptides and 14‐3‐3 isoforms, indicating different diffusion properties of the fluorophore when bound to the different 14‐3‐3 isoforms. […]
(§2) […]
(§3) All assays were performed in 384 well plates (each experiment was run in triplicates) and data were collected by Perkin Elmer EnVision […] plate reader with excitation at 480 nm (30 nm bandwidth), polarised dichroic mirror at 505 nm and emission at 535 nm (40 nm bandwidth, S and P polarised). […] A ½ fold dilution series was performed in the titration, with plates read after 30 min, 4 h and 20–24 h. […] Total intensity I and anisotropy r were calculated using Equations 1 and 2 for each well. […]
A general note: Polarisation of emitted light reports the rotation of a fluorescent probe.

A further experiment concerns the target T2, 14‐3‐3 σ (Homo sapiens, UniProt P31947).
T2 construct: full‐length proteins were concentrated by centrifugation, rebuffered in HEPES buffer; made in house; host or cells: E. coli BL21(DE3)
T2 sequence (P31947 1-248): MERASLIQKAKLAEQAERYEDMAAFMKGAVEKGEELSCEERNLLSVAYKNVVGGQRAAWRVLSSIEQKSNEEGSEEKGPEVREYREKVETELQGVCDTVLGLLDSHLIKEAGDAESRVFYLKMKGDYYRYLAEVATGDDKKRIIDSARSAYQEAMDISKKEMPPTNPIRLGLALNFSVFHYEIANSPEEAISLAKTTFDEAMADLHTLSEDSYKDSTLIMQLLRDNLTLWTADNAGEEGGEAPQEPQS
Briefly: Fluorescence anisotropy direct titration, 14‐3‐3σ. As to conditions: FA direct titration; FAM‐Ahx tracer peptide 50 nM; HEPES/NaCl/Tween 20/BSA pH 7.4; 1:1 fit; n = 3; read-out: K d, 14‐3‐3 σ.
Excerpt: as §1, §2, §3

The target of a further experiment is T3, 14‐3‐3 ε (Homo sapiens, UniProt P62258).
T3 construct: full‐length proteins were concentrated by centrifugation, rebuffered in HEPES buffer; made in house; host or cells: E. coli BL21(DE3)
T3 sequence (P62258 1-255): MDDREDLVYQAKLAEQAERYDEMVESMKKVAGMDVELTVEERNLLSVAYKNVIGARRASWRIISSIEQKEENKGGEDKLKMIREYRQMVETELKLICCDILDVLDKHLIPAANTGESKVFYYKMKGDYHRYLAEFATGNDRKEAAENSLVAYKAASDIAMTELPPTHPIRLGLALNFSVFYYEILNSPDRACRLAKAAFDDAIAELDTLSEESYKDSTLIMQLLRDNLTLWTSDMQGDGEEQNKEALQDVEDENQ
The experiment can be described thus: Fluorescence anisotropy direct titration, 14‐3‐3ε. The following applies: FA direct titration; FAM‐Ahx tracer peptide 50 nM; HEPES/NaCl/Tween 20/BSA pH 7.4; 1:1 fit; n = 3; read-out: K d, 14‐3‐3 ε.
Excerpt: as §1, §2, §3

Regarding `CC[C@H](C)[C@H](NC(=O)[C@H](CO)NC(=O)[C@H](CC(=O)O)NC(=O)[C@H](COP(=O)(O)O)NC(=O)[C@H](CCCCN)NC(=O)[C@H](Cc1c[nH]cn1)NC(=O)[C@H](CCCNC(=N)N)NC(=O)[C@H](CCCCN)NC(=O)[C@H](CCCNC(=N)N)NC(=O)[C@H](CCC(N)=O)NC(=O)CCCCCNC(=O)c1ccc2c(c1)C(=O)OC21c2ccc(O)cc2Oc2cc(O)ccc21)C(=O)N[C@@H](CO)C(=O)N[C@@H](CC(C)C)C(=O)N[C@@H](CO)C(N)=O` [hDM2_180‐192 ^pSer186] ({5FAM-Ahx}-QRKRHK[pS]DSISLS-NH2), the Kd at 14‐3‐3 τ is more than 250 µM; on 14‐3‐3 σ it was more than 170 µM; at 14‐3‐3 ε it was more than 260 µM.
